US20070197591A1, “USE OF PALIPERIDONE FOR THE TREATMENT OF A MENTAL DISORDER IN A PSYCHIATRIC PATIENT WITH REDUCED HEPATIC FUNCTION” (priority 2005, published 2007)
Read-outs that look alike come from different tables or passages of the source.

What was measured:
[1] = Single-dose pharmacokinetics of IR paliperidone in subjects with moderate hepatic impairment vs normal hepatic function; type: in vivo, human; conditions: for CL renal / AUC(0-inf) / half-life / Tmax / Cmax: both sexes, human, 1 mg; for CL renal: plasma and urine; for AUC(0-inf) / half-life / Tmax / Cmax: plasma; for half-life: read-out: t1/2 (terminal half-life) (converted); for Tmax: read-out: tmax, median (range); for Ae, % dose: urine
Description: Objectives: The primary objective of this study was to investigate the single-dose pharmacokinetics of immediate-release (IR) paliperidone, after oral administration, in subjects having moderate hepatic impairment (“hepatically-impaired subjects”) compared with subjects having normal hepatic function (“healthy subjects”). The secondary objective was to document the plasma protein binding and disposition of the enantiomers of paliperidone. In addition, the tolerability and safety profile of IR paliperidone was compared between hepatically impaired subjects and healthy subjects. Methodology: This was a single-dose, parallel-group, open-label, single-center, Phase I study of IR paliperidone in subjects having either normal or moderately impaired hepatic function. The groups, consisting of 10 subjects each, were demographically matched with respect to age, weight, sex, and ethnicity. The study consisted of a screening period of up to 3 weeks and an open-label, single-dose treatment period (Days 1 through 5). On Day 1, a single dose of 1 mg IR paliperidone oral solution was administered after a fast of at least 10 hours; subjects continued to fast for 4 hours following study drug administration. The 96-hour follow-up consisted of serial sample collection of blood and urine for pharmacokinetic analysis and safety and tolerability assessments. Subjects remained confined to the study site through the 72-hour pharmacokinetics sampling, and consumed standard institutional meals while in the study site. Subjects were released after the 72-hour sampling, then returned to the study site on Day 5 before the 96-hour pharmacokinetics sampling: end-of-study procedures were performed immediately hereafter. A blood sample for DNA isolation was collected to allow for genetic analysis as necessary. Diagnosis and Main Criteria for Inclusion: The study was conducted in men and women, aged 18 through 75 years, inclusive. One group of subjects had moderate hepatic impairment, with stable hepatic disease, a total Child-Pugh score of between 7 and 9, inclusive, and blood pressure that was controlled and stable on antihypertensive agents; the other group had normal hepatic function. Test Product, Dose and Mode of Administration, Batch No: 1 mg IR paliperidone (R076477) oral solution; batch 04C29/[…]. Criteria for Evaluation: Pharmacokinetics: Plasma and urine concentrations of the paliperidone enantiomers (+) R078543 and (-) R078544 were determined using an LC-MS/MS method. Concentrations of paliperidone were calculated as the sum of the enantiomer concentrations. In addition, serum and urine concentrations of creatinine were determined for the calculation of CLCR. The protein binding and unbound fraction was determined for the 2 paliperidone enantiomers. The unbound fraction for paliperidone was calculated. Based on the actual pharmacokinetic blood sampling times and actual urine collection periods, the following plasma and urine pharmacokinetic parameters were determined for paliperidone and its enantiomers: Cmax, tmax, tlast, AUClast, λZ, t1/2, AUC∞, % AUC∞,ex, CL/F, AUC∞+/- ratio, Ct+/- ratio per time point, unbound AUC∞, unbound CL/F or unbound CL (if relevant), Ae (per collection interval and overall), Ae,% dose, Excr. Rate, […], and CLNR. Pharmacokinetics: Descriptive statistics were evaluated for the plasma concentrations at each sampling time, and for all pharmacokinetic parameters of paliperidone and its enantiomers for each hepatic function group Graphical exploration of the paliperidone and enantiomer plasma concentrations and urine data, and the derived pharmacokinetic parameters, was performed. In addition, the enantiomer disposition was compared between the groups. Log-transformed PK parameters were fit to a general linear model with hepatic function grip as fixed effect.

[2] = Safety and tolerability of 1 mg IR paliperidone in healthy and hepatically-impaired subjects; type: in vivo, human
Protocol: Methodology: This was a single-dose, parallel-group, open-label, single-center, Phase I study of IR paliperidone in subjects having either normal or moderately impaired hepatic function. The groups, consisting of 10 subjects each, were demographically matched with respect to age, weight, sex, and ethnicity. The study consisted of a screening period of up to 3 weeks and an open-label, single-dose treatment period (Days 1 through 5). On Day 1, a single dose of 1 mg IR paliperidone oral solution was administered after a fast of at least 10 hours; subjects continued to fast for 4 hours following study drug administration. The 96-hour follow-up consisted of serial sample collection of blood and urine for pharmacokinetic analysis and safety and tolerability assessments. Subjects remained confined to the study site through the 72-hour pharmacokinetics sampling, and consumed standard institutional meals while in the study site. Subjects were released after the 72-hour sampling, then returned to the study site on Day 5 before the 96-hour pharmacokinetics sampling: end-of-study procedures were performed immediately hereafter. A blood sample for DNA isolation was collected to allow for genetic analysis as necessary. Safety: Adverse events, clinical laboratory tests, including prolactin, vital sign measurements, physical examinations, and 12-lad electrocardiograms (ECGs) were analyzed to assess safety. Safety: All subjects were analyzed; statistical analyses were description [? Does info need to be added here?].

[3] = Hepatically-Impaired Subjects, Total
[4] = Hepatically-Impaired Subjects, Unbound
[5] = oral, Healthy Subjects, Unbound
[6] = oral, Hepatically-Impaired Subjects, Total
[7] = oral, Hepatically-Impaired Subjects, Unbound
[8] = hepatically-impaired subjects (n = 10)

CL/F ([1]; Healthy Subjects, Total): 106 ± 34.9 mL/min | CLNR ([1]; Healthy Subjects, Total): 54.4 ± 23.7 mL/min | Vdz ([1]; Healthy Subjects, Total): 211 ± 59.6 L | CL/F ([1]; Healthy Subjects, Unbound): 370 ± 67.1 mL/min | CLNR ([1]; Healthy Subjects, Unbound): 188 ± 56.8 mL/min | Vdz ([1]; Healthy Subjects, Unbound): 748 ± 144 L | CL/F [1, 3]: 143 ± 43.4 mL/min | CLNR [1, 3]: 75.1 ± 16.2 mL/min | Vdz [1, 3]: 311 ± 65.2 L | CL/F [1, 4]: 386 ± 99.3 mL/min | CLNR [1, 4]: 205 ± 30.7 mL/min | Vdz [1, 4]: 857 ± 146 L | clearance and volume of distribution between the groups ([1]; based on unbound concentrations): comparable | Active renal clearance as share of the renal clearance ([1]; both groups): approximately 45% | median time to reach maximum plasma concentration ([1]; both groups): around 1 hour | CL renal ([1]; oral, Healthy Subjects, Total, read-out: CLR): 51.2 ± 13.4 mL/min | CL renal ([1]; oral, Hepatically-Impaired Subjects, Total, read-out: CLR): 67.4 ± 34 mL/min | CL renal ([1]; oral, healthy subjects (second value of '67.4 vs. 51.2'), read-out: Renal clearance): 51.2 mL/min | CL renal ([1]; oral, hepatically-impaired subjects (first value of '67.4 vs. 51.2'), read-out: Renal clearance): 67.4 mL/min | AUC(0-inf) ([1]; oral, Healthy Subjects, Total): 176 ± 64.4 ng·h/mL | half-life ([1]; oral, Healthy Subjects, Total): 23.6 h | Tmax ([1]; oral, Healthy Subjects, Total): 1 h | AUC(0-inf) [1, 5]: 45.8 ± 8.72 ng·h/mL | Cmax [1, 5]: 1.81 ± 0.292 ng/mL | Tmax [1, 5]: 1.25 h | AUC(0-inf) [1, 6]: 128 ± 42.5 ng·h/mL | Cmax [1, 6]: 4.57 ± 1.05 ng/mL | half-life [1, 6]: 26.5 h | Tmax [1, 6]: 1.25 h | AUC(0-inf) [1, 7]: 45.7 ± 12.6 ng·h/mL | Cmax [1, 7]: 1.59 ± 0.318 ng/mL | Tmax [1, 7]: 1.25 h | Cmax ([1]; po, Healthy Subjects, Total, 1 mg IR oral solution): 7.14 ± 2.28 ng/mL | dose excreted unchanged into urine ([1]; did not differ between the groups): Approximately 50% | CL/F higher in hepatically-impaired compared with healthy subjects ([1]; total): about 35% | volume of distribution higher in hepatically-impaired compared with healthy subjects ([1]; total Paliperidone): 47% | exposure (Cmax, AUC∞) between hepatic function groups after correction for unbound fraction ([1]; unbound): comparable | AUC∞ lower in hepatically-impaired compared with healthy subjects ([1]; unbound fraction): approximately 5% | Cmax lower in hepatically-impaired compared with healthy subjects ([1]; unbound fraction): approximately 12%
SMILES: Cc1nc2n(c(=O)c1CCN1CCC(c3noc4cc(F)ccc34)CC1)CCCC2O (stereo not shown) [Paliperidone, paliperidone]
Ae, % dose ([1]; Healthy Subjects): 50.1 ± 7.94 % dose | Ae, % dose ([1]; Hepatically-Impaired Subjects): 44.7 ± 10.62 % dose | tolerability ([2]; 1 mg, healthy and hepatically-impaired subjects): tolerated equally well | clinically important abnormal ECG values (including QT values) ([2]; both groups): no subjects had clinically important abnormal ECG values | orthostatic hypotension ([2]; both groups): no subject in either group met the criteria for orthostatic hypotension | subjects with treatment-emergent increase in hepatic enzymes ([2]; healthy subjects): 1 | subjects with increases in prolactin levels reported as adverse events ([2]; healthy subjects (n = 10)): 6 | subjects with treatment-emergent increase in hepatic enzymes ([2]; hepatically-impaired subjects): 1 | subjects reporting dizziness [2, 8]: 2 | subjects with increases in prolactin levels reported as adverse events [2, 8]: 8
